The conditions of experiment [1]: stated as known; cited from earlier work.
Experiment [2] in a line: Proteolytic action on target protein by hydroxyl radical (FIG. 2A). The note with it: prevention of degradation of target protein. In kind it is biochemical. The source says:
FIG. 2A is a hydroxyl radical, in which 1 is untreated target protein, 2 is no antioxidant added, 3 is IMDP added, 4 is vitamin C added, 5 is ferulic acid added, 6 is IMDP+vitamin C+ferulic acid added; and […]

Experiment [3] in a line: Proteolytic action on target protein by peroxynitrite radical (FIG. 2B). In kind it is biochemical. The following applies: prevention of degradation of target protein.
For experiment [4] the following is noted: stated as known; cited from earlier work. The source holds these as a separate data set.

`CC1=C(/C=C/C(C)=C/C=C/C(C)=C/C=C/C=C(C)/C=C/C=C(C)/C=C/C2=C(C)C(=O)[C@@H](O)CC2(C)C)C(C)(C)C[C@H](O)C1=O` [astaxanthin]: the “antioxidant activity against hydroxyl radicals (known)” value in experiment [1] is reported as “strong”.

Regarding `COc1cc(/C=C/C(=O)O)ccc1O` [ferulic acid], in experiment [2], the “antioxidant activity against hydroxyl radicals” value is on record as “strong”. In the case of `O=C1O[C@H]([C@@H](O)CO)C(O)=C1O` [vitamin C], the “antioxidant activity against peroxynitrite radicals” value in experiment [3] is “strong”. The “antioxidant activity against peroxynitrite radicals (known)” value in experiment [4] was “strong”. As to vitamin E, in experiment [1], the “antioxidant activity against hydroxyl radicals (known)” value is listed as “strong”.

Source of the values: US20230364180A1, “COMPOSITION FOR IMPROVING MILD COGNITIVE IMPAIRMENT AND METHOD FOR IMPROVING MILD COGNITIVE IMPAIRMENT” (TOKAI BUSSAN CO., LTD., priority 2019, published 2023).
